Reference: patent US20190136188A1, “4HPR AND ITS USE IN THE CULTURING OF HEMATOPOIETIC STEM CELLS” (UNIVERSITY HEALTH NETWORK, priority 2016, published 2019)

Assays:
DEGS1 = target: T1, DEGS1 (Homo sapiens, UniProt O15121); assay: Lipid mass spectrometry (LC/MS) of sphingolipids, DEGS1 activity; type: cell-based
T1 construct: endogenous in cells; host or cells: lineage-depleted human cord blood (lin- CB) cells
T1 sequence (O15121 1-323): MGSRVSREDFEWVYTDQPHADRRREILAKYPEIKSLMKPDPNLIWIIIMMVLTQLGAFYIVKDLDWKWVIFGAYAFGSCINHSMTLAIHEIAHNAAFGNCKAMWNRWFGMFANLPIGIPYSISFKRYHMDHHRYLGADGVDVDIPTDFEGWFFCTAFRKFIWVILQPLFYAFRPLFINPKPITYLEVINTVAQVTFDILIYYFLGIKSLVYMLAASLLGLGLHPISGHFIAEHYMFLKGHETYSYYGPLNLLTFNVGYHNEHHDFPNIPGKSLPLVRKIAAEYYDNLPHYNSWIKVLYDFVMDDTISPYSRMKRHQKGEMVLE
Text: All experiments following are at this 4HPR concentration unless otherwise indicated. […] (C) LC/MS was used to profile the ceramide (Cer), dihydroceramide (dhCer), sphingosine (sph), dihydrosphingosine (dhSph), S1P and dihydro-S1P (dhS1P) levels in lin− CB cells cultured for 8 days with control or 4HPR (n=2).

CB stem and prog cells = assay: Flow cytometry for ROS (CELLROX), mitochondrial membrane potential (TMRE), mitochondrial mass (mitotracker green); type: cell-based, human
lin- CB cells = assay: 8 day ex vivo expansion culture of lin- CB, flow cytometry; type: cell-based, human
Text: (A) Experimental scheme (B) Representative FACS analysis data of in vitro culture for 16 HSC dose time course (n=3). The number of (C) viable cells, (D) CD15+ myeloid cells, (E) GlyA+ erythroid cells, and (F) CD34+ primitive cells measured for the 16 LTRC dose with HTS flow cytometry analysis at day 8 post-treatment for vehicle control or 4HPR prior to xenotransplantation (n=5 biological replicates, 4 in technical triplicate, marked with different symbols). (G) Human CD45+ engraftment at 16 weeks post transplant in injected femur (n=4, 5 mice/biological experiment). Lineage analysis of control or 4HPR transplanted mice from FIG. 5G for (H) B lymphoid, (I) myeloid, (J) erythroid, and (K) primitive CD34+ at the 16 LTRC dose. (L) CD45+ cells were isolated from 5 biological experiments of the 16 LTRC dose primary mice and transplanted at limiting doses into secondary recipients for 16 weeks. Human CD45+ marking of >0.1% was considered positive for secondary engraftment. Limiting dilutation analysis was performed using ELDA software and the long-term repopulating cell (LTRC) frequency for each biological replicate plotted and the average LTRC frequency calculated.
(A) Representative flow cytometry analysis of the primitive hierarchy within the CD34+ fraction of day 8 cultured lin− CB cells after the indicated treatments for CD90 and CD45RA, n=4. B) The distribution of cultured CD34+CD90+CD45RA− (cHSC), CD34+CD90−CD45RA− (cMPP), and […] for the indicated conditions at day 8 of ex vivo culture following CD34 enrichment. Statistical significance assayed through unpaired t-test relative to vehicle control (Ctrl). The relative number of colonies resulting from (C) HSC or (D) MPP grown in methylcellulose CFC assays in the presence of vehicle control (−) or the indicated combination of 2 uM 4HPR, or 35 nM UM171 or 0.5 uM SR1 at 10 days. Statistical significance is calculated via unpaired t-test relative to ctrl (black) or to the presence of absence of 4HPR treatment for UM171 or SR1.
(A) The number of cells following 8 days of ex vivo culture at the 16 LTRC dose grown as in FIG. 5A for the indicated drug treatments (n=2). […] (2 biological replicates) (E) CD45+ cells were isolated from 2 biological experiments of the 16 LTRC dose primary mice and transplanted at limiting doses into secondary recipients for 16 weeks. Human CD45+ marking of >0.01% was considered positive for secondary engraftment. Limiting dilutation analysis was performed using ELDA software and the long-term repopulating cell (LTRC) frequency for each biological replicate plotted and the average LTRC frequency calculated.
To determine if 4HPR preserves functional HSC in CB liquid culture, we devised an experimental protocol to test the effect of 4HPR treatment in short-term ex vivo expansion culture on repopulation in serial NSG xenotransplantation to functionally read out LT-HSC (FIG. 5A). Briefly, lin− CB (enriched for CD34+) is cultured ex vivo in an in vitro limiting dilution assay (LDA) fashion based on 3 initial cell doses with high (16 functional HSC or LTRC), medium (3.2 LTRC) and limiting (0.65 LTRC) in xenotransplantation. All expanded cells are unbiasly transplanted via intrafemoral injection into NSG mice after 8 days of culture where drug is added every 2 day and reconstitution is assayed 16 weeks following transplantation. […] Human CD45+ cells are isolated from primary mice transplanted with the 16 LTRC dose and serially transplanted in LDA fashion to enumerate functional HSC in the gold-standard for long-term repopulating cell (LTRC). Remarkably, 4HPR treated cells show a 3 fold increase in SRC over control treatment through 32 weeks of xenotransplantation with an average LTRC frequency of 1e6 CD45+ cells (FIG. 5L, n=5, p=0.02). […] Thus, 4HPR acts to preserve LT-HSC function in ex vivo expansion despite limiting total CD34+ cells during culture. […]

[1] = lin-CB cells cultured 8 days, 2 uM 4HPR
[2] = stem and prog cells, day 2 and day 3
[3] = 8 days culture, 4HPR vs vehicle control

dhCer and dhSph levels (DEGS1; 8 day culture, alone or in combination with UM171 and SR1): increases dhCer and dhSph
levels of the signaling lipid S1P (DEGS1; [1]): not altered
total ceramide compared to control (DEGS1; [1]): decrease total ceramide
total dihydroceramide compared to control (DEGS1; [1]): increase total dihydroceramide
Structure (SMILES): CC1=C(/C=C/C(C)=C/C=C/C(C)=C/C(=O)Nc2ccc(O)cc2)C(C)(C)CCC1 [4HPR, N-(4hydroxyphenyl)retinamide]
mitochondrial mass (CB stem and prog cells; progenitor cells, 2 days of treatment): does decrease mitochondrial mass
ROS (CB stem and prog cells; [2]): decreased
mitochondrial mass (CB stem and prog cells; [2]): decreased
mitochondrial membrane potential (CB stem and prog cells; [2]): decreased
mitochondrial mass (CB stem and prog cells; stem cells, 2 days of treatment): without significantly altering mitochondrial mass in stem cells
mitochondrial mass (CB stem and prog cells; stem cells, D3 post-treatment): decreases mitochondrial mass by day 3 post-treatment in stem cells
erythroid differentiation in culture (lin- CB cells; [3]): decreased erythroid differentiation
immunophenotypic CD34+ cells in culture (lin- CB cells; [3]): fewer immunophenotypic CD34+ cells
myeloid differentiation in culture (lin- CB cells; [3]): enhanced myeloid differentiation
cHSC in the CD34 compartment (lin- CB cells; day 8, relative to control): trends to increasing cHSC
cMPP in the CD34 compartment (lin- CB cells; day 8, relative to control): increasing cMPP
percentage of cProg cells in the CD34 compartment (lin- CB cells; day 8, relative to control): significantly limits the percentage of (cProg) cells
formation of cProg cells (lin- CB cells; lin- CB as well as HSC and MPP, dominant over UM171 or SR1 singularly and in combination): limits the formation of cProg cells
